According to PMC4537502 (Psychopharmacology, 2015):

Experiments:
[1] = target: dopamine D2 receptor (D2R) (Rattus norvegicus, UniProt P61169); assay: in vivo; settings: rat, baseline, mean ± S.D.
Method: Because of limited availability of the test drug, the 60 mg/kg dose group was scanned only with ^11C-raclopride.
After drug administration and about 20 min before each microPET scan, animals were anesthetized with isoflurane (Pharmachemie BV, Haarlem, Netherlands). […] Both tracers were injected as a slow bolus (1 ml of saline-diluted tracer solution infused during a period of 1 min), using a Harvard-style injection pump.
Two rats were scanned in each scan session. They were positioned on heating mats in a microPET Focus 220 system, in transaxial position above each other with their brains in the field of view. Body temperature of the animals was kept close to normal with electronic temperature controllers. Heart rate and oxygen level of the blood during the scan were monitored using pulse oximeters (PulseSense, Nonin). […] A list mode protocol was used with a 76-min acquisition time.
Image reconstruction was performed using microPET Manager 2.3.3.6 (Siemens). The PET data were split according to position along the y-axis, so that a separate data set was acquired for each animal. The list mode data of the emission scans were reframed in a dynamic sequence of 6 × 10, 4 × 30, 2 × 60, 1 × 120, 1 × 180, 4 × 300, and 3 × 600 s (with an additional 960-s frame for the rat that was injected first). The data were reconstructed per time frame employing an iterative reconstruction algorithm (OSEM2D with Fourier rebinning, 4 iterations, and 16 subsets). […] Data sets were corrected for decay, random coincidences, scatter, and attenuation.
In ^11C-raclopride scans of the brain, three-dimensional regions of interest (ROIs) were manually drawn over the left and right striatum and cerebellum, using the program ASIPro 6.3.3.0 (Siemens). […] Time-activity curves (TACs) were generated for these regions (Fig. 1). The results are expressed as dimensionless standardized uptake values (PET-SUV), defined as [(tissue activity concentration (MBq/g) × body weight (g) / injected dose (MBq)]. Brain tissue was assumed to have a specific gravity of 1 g/ml.
Plateau values for the striatum-to-cerebellum ratio were derived from this curve fit.

[2] = Biodistribution of ^11C-SA4503-derived radioactivity; assay type: in vivo; settings: rat, 80 min after injection, mean ± SEM
[3] = plasma radioactivity and metabolite analysis after ^11C-SA4503 injection; assay type: in vivo; settings: rat, 60 min, saline-treated
Method: From these samples, 25 μl of whole blood was collected and plasma (25 μl) was then obtained by centrifugation of the remaining sample (5 min at 13,000×g). Radioactivity in plasma and whole blood was determined using a calibrated gamma counter (CompuGamma CS1282, LKB-Wallac, Turku, Finland).

Sequence of dopamine D2 receptor (D2R) (P61169 whole entry): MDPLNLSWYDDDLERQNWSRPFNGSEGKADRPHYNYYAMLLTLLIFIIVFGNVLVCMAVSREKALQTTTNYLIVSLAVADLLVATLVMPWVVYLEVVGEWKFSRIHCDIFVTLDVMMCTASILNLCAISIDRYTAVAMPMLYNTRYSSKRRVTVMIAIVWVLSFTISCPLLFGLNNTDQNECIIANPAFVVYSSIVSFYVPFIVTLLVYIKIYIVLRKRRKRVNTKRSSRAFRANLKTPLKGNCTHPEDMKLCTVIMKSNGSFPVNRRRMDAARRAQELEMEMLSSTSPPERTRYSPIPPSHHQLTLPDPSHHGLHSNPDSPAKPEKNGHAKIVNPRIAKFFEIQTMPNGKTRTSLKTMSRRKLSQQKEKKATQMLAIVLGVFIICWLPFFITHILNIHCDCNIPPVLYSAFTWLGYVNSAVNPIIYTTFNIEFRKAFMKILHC

CCN1CCC[C@H]1CNC(=O)c1c(O)c(Cl)cc(Cl)c1O[11CH3] (racemic) [^11C-raclopride]
Target binding of the radioligand (striatum-to-cerebellum ratio at plateau minus one) [1]: 2.85 ± 0.48

COc1ccc(CCN2CCN(CCCc3ccccc3)CC2)cc1OC [^11C-SA4503, 1-[2-(3,4-dimethoxyphenethyl)]-4-(3-phenylpropyl)piperazine]
Uptake of radioactivity (SUV values), Adipose tissue ([2]; 3 mg/kg pridopidine): 0.27 ± 0.06 SUV | Uptake of radioactivity (SUV values), Adrenal gland ([2]; 3 mg/kg pridopidine): 23.0 ± 4.1 SUV | Uptake of radioactivity (SUV values), Bladder ([2]; 3 mg/kg pridopidine): 0.88 ± 0.38 SUV | Uptake of radioactivity (SUV values), Bone ([2]; 3 mg/kg pridopidine): 0.26 ± 0.03 SUV | Uptake of radioactivity (SUV values), Bone marrow ([2]; 3 mg/kg pridopidine): 2.62 ± 0.67 SUV | Uptake of radioactivity (SUV values), Cerebellum ([2]; 3 mg/kg pridopidine): 0.76 ± 0.17 SUV | Uptake of radioactivity (SUV values), Cerebral cortex ([2]; 3 mg/kg pridopidine): 1.17 ± 0.17 SUV | Uptake of radioactivity (SUV values), Heart ([2]; 3 mg/kg pridopidine): 0.23 ± 0.01 SUV | Uptake of radioactivity (SUV values), Intestine (large) ([2]; 3 mg/kg pridopidine): 1.21 ± 0.12 SUV | Uptake of radioactivity (SUV values), Intestine (small) ([2]; 3 mg/kg pridopidine): 1.93 ± 0.40 SUV | Uptake of radioactivity (SUV values), Kidney ([2]; 3 mg/kg pridopidine): 2.10 ± 0.09 SUV | Uptake of radioactivity (SUV values), Liver ([2]; 3 mg/kg pridopidine): 7.71 ± 0.89 SUV | Uptake of radioactivity (SUV values), Lung ([2]; 3 mg/kg pridopidine): 1.05 ± 0.06 SUV | Uptake of radioactivity (SUV values), Muscle ([2]; 3 mg/kg pridopidine): 0.13 ± 0.01 SUV | Uptake of radioactivity (SUV values), Pancreas ([2]; 3 mg/kg pridopidine): 5.02 ± 0.64 SUV | Uptake of radioactivity (SUV values), Pituitary ([2]; 3 mg/kg pridopidine): 2.13 ± 0.44 SUV | Uptake of radioactivity (SUV values), Plasma ([2]; 3 mg/kg pridopidine): 0.14 ± 0.02 SUV | Uptake of radioactivity (SUV values), Red blood cells ([2]; 3 mg/kg pridopidine): 0.07 ± 0.01 SUV | Uptake of radioactivity (SUV values), Rest brain ([2]; 3 mg/kg pridopidine): 1.10 ± 0.05 SUV | Uptake of radioactivity (SUV values), Spleen ([2]; 3 mg/kg pridopidine): 2.03 ± 0.12 SUV | Uptake of radioactivity (SUV values), Submandibular gland ([2]; 3 mg/kg pridopidine): 4.48 ± 0.64 SUV | Uptake of radioactivity (SUV values), Urine ([2]; 3 mg/kg pridopidine): 1.60 ± 0.87 SUV | Uptake of radioactivity (SUV values), Adipose tissue ([2]; 15 mg/kg pridopidine): 0.36 ± 0.04 SUV | Uptake of radioactivity (SUV values), Adrenal gland ([2]; 15 mg/kg pridopidine): 10.7 ± 4.1 SUV | Uptake of radioactivity (SUV values), Bladder ([2]; 15 mg/kg pridopidine): 0.83 ± 0.22 SUV | Uptake of radioactivity (SUV values), Bone ([2]; 15 mg/kg pridopidine): 0.44 ± 0.05 SUV | Uptake of radioactivity (SUV values), Bone marrow ([2]; 15 mg/kg pridopidine): 2.20 ± 0.77 SUV | Uptake of radioactivity (SUV values), Cerebellum ([2]; 15 mg/kg pridopidine): 0.73 ± 0.03 SUV | Uptake of radioactivity (SUV values), Cerebral cortex ([2]; 15 mg/kg pridopidine): 0.87 ± 0.05 SUV | Uptake of radioactivity (SUV values), Heart ([2]; 15 mg/kg pridopidine): 0.38 ± 0.02 SUV | Uptake of radioactivity (SUV values), Intestine (large) ([2]; 15 mg/kg pridopidine): 0.74 ± 0.08 SUV | Uptake of radioactivity (SUV values), Intestine (small) ([2]; 15 mg/kg pridopidine): 1.70 ± 0.15 SUV | Uptake of radioactivity (SUV values), Kidney ([2]; 15 mg/kg pridopidine): 2.07 ± 0.15 SUV | Uptake of radioactivity (SUV values), Liver ([2]; 15 mg/kg pridopidine): 7.21 ± 0.83 SUV | Uptake of radioactivity (SUV values), Lung ([2]; 15 mg/kg pridopidine): 1.47 ± 0.04 SUV | Uptake of radioactivity (SUV values), Muscle ([2]; 15 mg/kg pridopidine): 0.22 ± 0.02 SUV | Uptake of radioactivity (SUV values), Pancreas ([2]; 15 mg/kg pridopidine): 6.23 ± 0.53 SUV | Uptake of radioactivity (SUV values), Pituitary ([2]; 15 mg/kg pridopidine): 2.75 ± 0.72 SUV | Uptake of radioactivity (SUV values), Plasma ([2]; 15 mg/kg pridopidine): 0.28 ± 0.02 SUV | Uptake of radioactivity (SUV values), Red blood cells ([2]; 15 mg/kg pridopidine): 0.16 ± 0.01 SUV | Uptake of radioactivity (SUV values), Rest brain ([2]; 15 mg/kg pridopidine): 0.65 ± 0.03 SUV | Uptake of radioactivity (SUV values), Spleen ([2]; 15 mg/kg pridopidine): 1.99 ± 0.07 SUV | Uptake of radioactivity (SUV values), Submandibular gland ([2]; 15 mg/kg pridopidine): 5.77 ± 0.39 SUV | Uptake of radioactivity (SUV values), Urine ([2]; 15 mg/kg pridopidine): 0.50 ± 0.09 SUV | Uptake of radioactivity (SUV values), Adipose tissue ([2]; Baseline): 0.26 ± 0.05 SUV | Uptake of radioactivity (SUV values), Adrenal gland ([2]; Baseline): 25.7 ± 3.6 SUV | Uptake of radioactivity (SUV values), Bladder ([2]; Baseline): 0.70 ± 0.10 SUV | Uptake of radioactivity (SUV values), Bone ([2]; Baseline): 0.44 ± 0.14 SUV | Uptake of radioactivity (SUV values), Bone marrow ([2]; Baseline): 2.57 ± 0.47 SUV | Uptake of radioactivity (SUV values), Cerebellum ([2]; Baseline): 1.95 ± 0.12 SUV | Uptake of radioactivity (SUV values), Cerebral cortex ([2]; Baseline): 1.97 ± 0.15 SUV | Uptake of radioactivity (SUV values), Heart ([2]; Baseline): 0.33 ± 0.04 SUV | Uptake of radioactivity (SUV values), Intestine (large) ([2]; Baseline): 1.72 ± 0.13 SUV | Uptake of radioactivity (SUV values), Intestine (small) ([2]; Baseline): 2.33 ± 0.28 SUV | Uptake of radioactivity (SUV values), Kidney ([2]; Baseline): 4.19 ± 0.20 SUV | Uptake of radioactivity (SUV values), Liver ([2]; Baseline): 6.47 ± 0.63 SUV | Uptake of radioactivity (SUV values), Lung ([2]; Baseline): 1.98 ± 0.18 SUV | Uptake of radioactivity (SUV values), Muscle ([2]; Baseline): 0.15 ± 0.02 SUV | Uptake of radioactivity (SUV values), Pancreas ([2]; Baseline): 4.95 ± 0.74 SUV | Uptake of radioactivity (SUV values), Pituitary ([2]; Baseline): 3.24 ± 0.03 SUV | Uptake of radioactivity (SUV values), Plasma ([2]; Baseline): 0.11 ± 0.02 SUV | Uptake of radioactivity (SUV values), Red blood cells ([2]; Baseline): 0.10 ± 0.03 SUV | Uptake of radioactivity (SUV values), Rest brain ([2]; Baseline): 2.23 ± 0.31 SUV | Uptake of radioactivity (SUV values), Spleen ([2]; Baseline): 2.62 ± 0.27 SUV | Uptake of radioactivity (SUV values), Submandibular gland ([2]; Baseline): 3.60 ± 0.18 SUV | Uptake of radioactivity (SUV values), Urine ([2]; Baseline): 0.35 ± 0.16 SUV | parent tracer (^11C-SA4503) remaining unchanged in plasma [3]: 55%
